Patent US20040237130A1, “Embryogenic culture initiation of douglas-fir by maltose” (Weyerhaeuser Company, priority 2003, published 2004)

How the values were obtained:
[1] = test system: Douglas-fir embryonal suspensor masses; test: Establishment of embryonal suspensor masses on BM2 maintenance medium; assay type: cell-based; settings: for Initiation (#) (Establishment Frequencies) / Initiation (%) (Establishment Frequencies) / Initiation (%) (Establishment Frequencies); proportion of established ESMs: sugar 30000 mg/L in solid BM2 maintenance medium, 12-15 subcultures
Protocol: Maintenance: After 5-6 weeks, ESMs from Group A were subcultured onto a solid BM2 maintenance medium (Table 2), and ESMs from Group B were subcultured unto a BM2 maintenance medium in which the maltose was replaced with sucrose (30000 mg/L). The maintenance medium differs from the initiation medium in that the growth hormones (both auxins and cytokinins) are reduced by at least a full order of magnitude. Osmolality of this medium was typically raised from that of the initiation medium to about 180 mM/kg or higher (typically within the range of about 180-400 mM/kg) by increasing the concentration of myo-inositol to 0.5% w/v. The temperature and photoperiod were again 22°-25 C. with 24 hours in the dark. ESMs were subcultured every 12 days onto fresh maintenance medium. The number of ESMs established from explants for each group after a total of 12-15 subcultures on maintenance is shown in Table 4. An ESM was considered to be established if it weighed between 250 mg and 500 mg (fresh weight) or if measured 1-2 cms in diameter, after several subcultures. The proportion of established ESMs obtained was 18% for explants in Group A and 11% for explants in Group B. The frequencies of established ESMs improved for each of the 4 crosses tested when explants were cultured on maintenance medium containing maltose (Group A). Overall, the number of established ESMs increased by 51% for explants cultured on maintenance medium containing maltose, compared to explants cultured on maintenance medium containing sucrose.

Douglas-fir explants = test: Initiation of embryonal suspensor masses (ESM) from Douglas-fir explants on BM1 initiation medium; assay type: cell-based; settings: for Initiation (#) / Initiation (%): sugar 15000 mg/L in semi-solid BM1 initiation medium, 5-6 weeks, dark
Protocol: Cones were collected from four mother tree crosses (full-sib families) at a time when the embryos were in the pre-dome and dome stage of development. Cones were transferred on blue ice and stored in plastic bags in a cold room at 0-4° C. until needed for dissections. Seeds were removed from cones and dissected on the same day. After the seeds were removed, they were placed into a beaker containing pre-sterilized water. Seeds were divided into aliquots of 60-80 seeds. Each aliquot was placed into a separate pre-sterilized tea strainer before undergoing the following procedure. First, seeds were agitated in 10% Liqui-nox (+2 droppers full Tween-20 per liter) for 10 minutes. After rinsing the seeds in deionized water (18 megaohms) for 30 minutes, the tea strainers were exposed to 20% (v/v) H2O2 for 10 minutes in a fume hood on a rotary shaker (175 rpm). The H2O2 was diluted just before use with sterile, deionized water. Following application of the H2O2, each strainer was placed into a separate beaker of sterile deionized water, covered with foil, and moved into the laminar flow hood. All subsequent steps were carried out in the laminar flow hood. Each tea strainer was rinsed by agitating 4-8 times in each of 5 separate portions of sterile deionized water. The contents of each tea strainer were then dumped into a large petri dish containing a sterile filter paper and a few millimeters of sterile water (to help keep seeds from drying). Seeds were placed into 60×15 mm sterile petri plates containing 0.2 ml sterile deionized water each. Those seeds not dissected after sterilization were thrown out at the end of the day. Dissections were done in clean laminar flow hoods. Clean gloves were worn throughout the preparatory steps and dissection. Sterile forceps and scalpels were used to carefully split the seed, remove the female gametophyte and nucellus, and to split the female gametophyte. The embryo suspensor was pulled out, but kept attached to (or touching) the female gametophyte. Embryo and gametophyte were placed unto initiation medium BM1 so that the embryo was visible through the petri dish lid. Initiation: Half of the embryos and gametophytes (Group 1) from each cross were placed on a semi-solid BM1 initiation medium (Table 2), the other half (Group 2) were placed on semi-solid BM1 initiation medium in which the maltose was replaced with sucrose (15000 mg/L). The explants were held in an environment at 22°-25 C with a 24 hour dark photoperiod for a time of 5-6 weeks. The length of time depends on the particular genotype being cultured. Embryonal suspensor masses (ESM) (White, translucent, and mucilaginous) were observed beginning 2-3 weeks after inoculation. […] Initiation is defined as growth of an embryonal suspensor mass from an explant. Overall, the percentage of ESMs initiated from explants was 27% for Group A and 18% for Group B. Initiation improved for each of the 4 crosses tested when explants were cultured on initiation medium containing maltose (Group A). Overall, the number of explants initiated increased by 51% for explants cultured on initiation medium containing maltose, compared to explants cultured on initiation medium containing sucrose.

SMILES: OC[C@H]1O[C@H](O[C@H]2[C@H](O)[C@@H](O)C(O)O[C@@H]2CO)[C@H](O)[C@@H](O)[C@@H]1O (mixture of isomers) [Group A, maltose]
- Initiation (#) (Establishment Frequencies) ([1]; Cross 1): 36 #
- Initiation (%) (Establishment Frequencies) ([1]; Cross 1): 26%
- Initiation (#) (Establishment Frequencies) ([1]; Cross 2): 11 #
- Initiation (%) (Establishment Frequencies) ([1]; Cross 2): 10%
- Initiation (#) (Establishment Frequencies) ([1]; Cross 3): 20 #
- Initiation (%) (Establishment Frequencies) ([1]; Cross 3): 18%
- Initiation (#) (Establishment Frequencies) ([1]; Cross 4): 17 #
- Initiation (%) (Establishment Frequencies) ([1]; Cross 4): 15%
- Initiation (#) (Establishment Frequencies) ([1]; Total of 4 crosses): 84 #
- Initiation (%) (Establishment Frequencies); proportion of established ESMs ([1]; Total of 4 crosses): 18%
- frequencies of established ESMs for each of the 4 crosses tested, compared with sucrose medium ([1]; each of 4 crosses): improved
- increase in number of established ESMs compared to maintenance medium containing sucrose ([1]; overall, 4 crosses): 51%
- Initiation (#) (Douglas-fir explants; Cross 1): 63 #
- Initiation (%) (Douglas-fir explants; Cross 1): 46%
- Initiation (#) (Douglas-fir explants; Cross 2): 30 #
- Initiation (%) (Douglas-fir explants; Cross 2): 28%
- Initiation (#) (Douglas-fir explants; Cross 3): 21 #
- Initiation (%) (Douglas-fir explants; Cross 3): 19%
- Initiation (#) (Douglas-fir explants; Cross 4): 13 #
- Initiation (%) (Douglas-fir explants; Cross 4): 12%
- Initiation (%) (Douglas-fir explants; Total of 4 crosses (overall)): 27%
- Initiation (#) (Douglas-fir explants; Total of 4 crosses): 127 #
- Initiation for each of the 4 crosses tested, compared with sucrose medium (Douglas-fir explants; each of 4 crosses): improved
- increase in number of explants initiated compared to initiation medium containing sucrose (Douglas-fir explants; overall, 4 crosses): 51%

SMILES: OC[C@H]1O[C@@](CO)(O[C@H]2O[C@H](CO)[C@@H](O)[C@H](O)[C@H]2O)[C@@H](O)[C@@H]1O [Group B, sucrose, reference compound]
- Initiation (#) (Establishment Frequencies) ([1]; Cross 1): 20 #
- Initiation (%) (Establishment Frequencies) ([1]; Cross 1): 14%
- Initiation (#) (Establishment Frequencies) ([1]; Cross 2): 6 #
- Initiation (%) (Establishment Frequencies) ([1]; Cross 2): 6%
- Initiation (#) (Establishment Frequencies) ([1]; Cross 3): 12 #
- Initiation (%) (Establishment Frequencies) ([1]; Cross 3): 11%
- Initiation (#) (Establishment Frequencies) ([1]; Cross 4): 13 #
- Initiation (%) (Establishment Frequencies) ([1]; Cross 4): 12%
- Initiation (#) (Establishment Frequencies) ([1]; Total of 4 crosses): 51 #
- Initiation (%) (Establishment Frequencies); proportion of established ESMs ([1]; Total of 4 crosses): 11%
- Initiation (#) (Douglas-fir explants; Cross 1): 42 #
- Initiation (%) (Douglas-fir explants; Cross 1): 30%
- Initiation (#) (Douglas-fir explants; Cross 2): 20 #
- Initiation (%) (Douglas-fir explants; Cross 2): 19%
- Initiation (#) (Douglas-fir explants; Cross 3): 14 #
- Initiation (%) (Douglas-fir explants; Cross 3): 13%
- Initiation (#) (Douglas-fir explants; Cross 4): 8 #
- Initiation (%) (Douglas-fir explants; Cross 4): 7%
- Initiation (%) (Douglas-fir explants; Total of 4 crosses (overall)): 18%
- Initiation (#) (Douglas-fir explants; Total of 4 crosses): 84 #
